Test systems include SN12C renal; COLO 205 colon; RXF 393 renal; LOX IMVI melanoma; SK-MEL-2 melanoma; HCT-116 colon; SNB-78 CNS; KM20L2 colon.
Experiment in all cases: NCI tumour cell line growth inhibition, 48 h

The values that follow come from PubChem BioAssay (NCI).

“And” between values parts separate entries of the source, which are not always exact repeats. Identical values can stand only once.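 Results reflect a 48-hour exposure of cells in 96-well plates to compound at five concentrations. Here, GI50 denotes the concentration required for 50% inhibition of growth. TGI: total growth inhibition.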

`COc1ccc2c(c1)[nH]c(=O)c1c3cc(C)c(C)cc3cn21`: the GI50 with SN12C renal was under 19.2 nM; in the assay with COLO 205 colon it was under 13.4 nM; in the assay on RXF 393 renal, under 10 nM; in the assay with LOX IMVI melanoma, under 14 nM; in the assay with SK-MEL-2 melanoma, under 20.8 nM; with HCT-116 colon it was under 10 nM. For the same molecule, the TGI was 1740 nM in the assay with SN12C renal; 24.8 nM in the assay with COLO 205 colon; 1220 nM with RXF 393 renal; 1660 nM with LOX IMVI melanoma; 6190 nM in the assay on SK-MEL-2 melanoma; 516 nM in the assay with HCT-116 colon.

With `Cc1ccc(CNc2c3ccccc3nc3ccccc23)cc1`, the GI50 with SN12C renal is 2600 nM; in the assay on COLO 205 colon it was 1570 nM; with RXF 393 renal, 1680 nM; with LOX IMVI melanoma, 1480 nM; in the assay on SK-MEL-2 melanoma it was 2060 nM; with HCT-116 colon it was 880 nM. In addition, the TGI was determined as 11100 nM in the assay on SN12C renal; 3590 nM in the assay with COLO 205 colon; 3410 nM with RXF 393 renal; 2840 nM with LOX IMVI melanoma; 4470 nM in the assay with SK-MEL-2 melanoma; 6600 nM in the assay with HCT-116 colon.

With `O=C(c1ccccc1)C(C(=O)c1ccccc1)C1(O)C(=O)c2ccccc2C1=O`, the TGI is over 100000 nM with SN12C renal; over 100000 nM with COLO 205 colon; over 100000 nM in the assay on SNB-78 CNS; 889 nM with RXF 393 renal; over 100000 nM with LOX IMVI melanoma; over 100000 nM with SK-MEL-2 melanoma. In addition, the TGI with KM20L2 colon is over 100000 nM.

As for `COc1cc(-c2nn(-c3ccc(NC(=O)c4ccc(Cl)c(Cl)c4)cc3)cc2-c2ccncc2)ccc1Cl`, the GI50 in the assay on SN12C renal was 5110 nM; in the assay on COLO 205 colon, 3620 nM; in the assay on RXF 393 renal it was 1500 nM; with LOX IMVI melanoma, 2760 nM; in the assay on SK-MEL-2 melanoma it was 5740 nM; in the assay on HCT-116 colon, 4600 nM. Moreover, the TGI in the assay on SN12C renal is over 100000 nM; in the assay on COLO 205 colon, over 100000 nM; with RXF 393 renal, 4530 nM; with LOX IMVI melanoma it was over 100000 nM; in the assay with SK-MEL-2 melanoma, over 100000 nM; in the assay on HCT-116 colon it was over 100000 nM.

For `COc1cc2c(cc1OC)C(=O)/C(=C/c1cccc(OCC(=O)c3ccccc3)c1)C2`, the GI50 in the assay on SN12C renal is 23800 nM; with COLO 205 colon it was 28000 nM; with RXF 393 renal it was 35400 nM; in the assay with LOX IMVI melanoma, 18300 nM; in the assay on SK-MEL-2 melanoma, 10200 nM; in the assay with HCT-116 colon, 5440 nM. Also, the TGI in the assay on SN12C renal, in the assay on COLO 205 colon, in the assay on RXF 393 renal, in the assay on LOX IMVI melanoma, in the assay with SK-MEL-2 melanoma and with HCT-116 colon was over 100000 nM throughout.

In the case of `C=CCn1c2c(c3ccccc3c1=O)C(=O)c1ccccc1-2`, the TGI with SN12C renal, in the assay with COLO 205 colon, in the assay on RXF 393 renal, in the assay with LOX IMVI melanoma, with SK-MEL-2 melanoma and with HCT-116 colon was over 100000 nM in each case.

`COc1cc(C2CC(c3ccc(C)cc3)=NN2C=O)ccc1Oc1ccnc2cc(Cl)ccc12` (configuration not stated): the GI50 was over 50000 nM with SN12C renal; over 50000 nM with COLO 205 colon; 4160 nM in the assay with RXF 393 renal; over 50000 nM in the assay on LOX IMVI melanoma; 7390 nM in the assay on SK-MEL-2 melanoma; 2500 nM in the assay on HCT-116 colon. The TGI is over 50000 nM in the assay with SN12C renal; over 50000 nM with COLO 205 colon; 20500 nM with RXF 393 renal; over 50000 nM in the assay on LOX IMVI melanoma; 18300 nM with SK-MEL-2 melanoma; over 50000 nM with HCT-116 colon.

As to `O=C1NCc2ccc3c(-c4cccc(Cl)c4)c[nH]c3c21`, the GI50 was 438 nM in the assay on SN12C renal; 297 nM with COLO 205 colon; 296 nM in the assay with RXF 393 renal; 279 nM with LOX IMVI melanoma; 317 nM in the assay on SK-MEL-2 melanoma; 217 nM in the assay with HCT-116 colon. Also, the TGI in the assay on SN12C renal was over 50000 nM; in the assay with RXF 393 renal, over 15400 nM; with LOX IMVI melanoma it was over 50000 nM; in the assay on SK-MEL-2 melanoma, over 50000 nM; in the assay with HCT-116 colon it was 9070 nM.

With `CNc1ccc2nc3ccc(=[N+](C)C)cc-3sc2c1`, the GI50 in the assay on SN12C renal was 1080 nM and 466 nM; with COLO 205 colon it was 626 nM and 365 nM; in the assay with RXF 393 renal, 3530 nM and 5320 nM; in the assay with LOX IMVI melanoma, 443 nM and 368 nM; with SK-MEL-2 melanoma it was 1120 nM and 1070 nM; with HCT-116 colon it was 304 nM and 246 nM. In addition, the TGI in the assay with SN12C renal is 3310 nM and 4160 nM; in the assay with COLO 205 colon, 3030 nM and 1440 nM; with RXF 393 renal, 11400 nM and 14300 nM; with LOX IMVI melanoma, 4470 nM and 2150 nM; in the assay with SK-MEL-2 melanoma it was 3810 nM and 5250 nM; in the assay on HCT-116 colon, 8700 nM and 1470 nM.

In the case of `COc1cc(O)c([C@@H]2C[C@H](CCc3ccc(O)cc3)O[C@H](c3ccc(O)cc3)C2)c(O)c1C(=O)/C=C/c1ccc(O)cc1`, the GI50 in the assay with SN12C renal is 3230 nM; in the assay on COLO 205 colon, 2510 nM; with RXF 393 renal it was 2480 nM; in the assay on LOX IMVI melanoma, 1930 nM; in the assay on SK-MEL-2 melanoma it was 2380 nM; in the assay on HCT-116 colon, 2740 nM. Moreover, the TGI in the assay on SN12C renal is 13800 nM; in the assay with COLO 205 colon it was 5400 nM; in the assay with RXF 393 renal, 5640 nM; in the assay on LOX IMVI melanoma it was 3630 nM; with SK-MEL-2 melanoma, 6860 nM; with HCT-116 colon, 8270 nM.

`CCC[CH2][Sn-]([CH2]CCC)([CH2]CCC)[O]c1cc(Cl)c(Cl)cc1Cl`: the GI50 in the assay on SN12C renal is 164 nM; with COLO 205 colon, 191 nM; in the assay on RXF 393 renal it was 196 nM; in the assay with LOX IMVI melanoma, 175 nM; with SK-MEL-2 melanoma, 377 nM; with HCT-116 colon, 154 nM. Moreover, the TGI with SN12C renal turned out to be 338 nM; in the assay with COLO 205 colon, 400 nM; with RXF 393 renal, 509 nM; with LOX IMVI melanoma, 340 nM; in the assay on SK-MEL-2 melanoma, 1860 nM; in the assay with HCT-116 colon it was 318 nM.

With `COc1cc(/C(C#N)=C/c2ccc3c(c2OC)OCO3)cc2c1OCO2`, the GI50 in the assay on SN12C renal is 695 nM; in the assay on COLO 205 colon, 94.1 nM; in the assay with RXF 393 renal, 174 nM; in the assay with LOX IMVI melanoma it was 70 nM; with SK-MEL-2 melanoma, 46.1 nM; with HCT-116 colon it was 49.2 nM. Also, the TGI in the assay with SN12C renal is over 100000 nM; in the assay on COLO 205 colon, 3140 nM; in the assay on RXF 393 renal, 753 nM; with LOX IMVI melanoma, 20300 nM; in the assay on SK-MEL-2 melanoma it was 6460 nM; with HCT-116 colon it was over 35700 nM.
